In ChEMBL document CHEMBL5042526, “Design, Synthesis, and Biological Evaluation of Triazolone Derivatives as Potent PPARα/δ Dual Agonists for the Treatment of Nonalcoholic Steatohepatitis” (J Med Chem, 2022):
Activity calls are given as the source filed them.

Columns and labels:
HepG2 [1] = experiment: Agonist activity against PPARalpha/delta (unknown origin) assessed as upregulation of PDK4 mRNA expression in human HepG2 cells incubated for 12 hrs by RT-PCR analysis; type: cell-based; conditions: filed as agonist, dose 8-200 nM
HepG2 [2] = experiment: Agonist activity against PPARalpha/delta (unknown origin) assessed as upregulation of ACADVL mRNA expression in human HepG2 cells at 8 nM incubated for 12 hrs by RT-PCR analysis; type: cell-based; conditions: filed as agonist
HepG2 [3] = experiment: Agonist activity against PPARalpha/delta (unknown origin) assessed as upregulation of PDK4 mRNA expression in human HepG2 cells at 8 nM incubated for 12 hrs by RT-PCR analysis; type: cell-based; conditions: filed as agonist
HepG2 [4] = experiment: Agonist activity against PPARalpha/delta (unknown origin) assessed as upregulation of CPT1A mRNA expression in human HepG2 cells at 8 nM incubated for 12 hrs by RT-PCR analysis; type: cell-based; conditions: filed as agonist
Mus musculus [5] = experiment: In vivo agonist activity at PPARalpha/delta assessed as upregulation of Lpf5 mRNA expression in C57BL/6Nifdc mouse liver at 10 mg/kg, po for 4 days; type: functional, organism-based; conditions: time 4.0 day
Mus musculus [6] = experiment: In vivo agonist activity at PPARalpha/delta assessed as upregulation of Mfn2 mRNA expression in C57BL/6Nifdc mouse liver at 10 mg/kg, po for 4 days; type: functional, organism-based; conditions: time 4.0 day
Mus musculus [7] = experiment: In vivo agonist activity at PPARalpha/delta assessed as upregulation of Cpt2 mRNA expression in C57BL/6Nifdc mouse liver at 10 mg/kg, po for 4 days; type: functional, organism-based; conditions: time 4.0 day
Mus musculus [8] = experiment: In vivo agonist activity at PPARalpha/delta assessed as upregulation of -Ehhadh mRNA expression in C57BL/6Nifdc mouse liver at 10 mg/kg, po for 4 days; type: functional, organism-based; conditions: time 4.0 day
Mus musculus [9] = experiment: In vivo agonist activity at PPARalpha/delta assessed as upregulation of Acox1 mRNA expression in C57BL/6Nifdc mouse liver at 10 mg/kg, po for 4 days; type: functional, organism-based; conditions: time 4.0 day
Mus musculus [10] = experiment: In vivo agonist activity against PPARalpha/delta assessed as upregulation of Acs15 mRNA expression in C57BL/6Nifdc mouse liver at 10 mg/kg, po for 4 days; type: functional, organism-based; conditions: time 4.0 day
Mus musculus [11] = experiment: In vivo agonist activity against PPARalpha/delta assessed as upregulation of Mat2a mRNA expression in C57BL/6Nifdc mouse liver at 10 mg/kg, po for 4 days; type: functional, organism-based; conditions: time 4.0 day
Mus musculus [12] = experiment: In vivo agonist activity against PPARalpha/delta assessed as upregulation of Cd36 mRNA expression in C57BL/6Nifdc mouse liver at 10 mg/kg, po for 4 days; type: functional, organism-based; conditions: time 4.0 day
Mus musculus [13] = experiment: In vivo agonist activity against PPARalpha/delta assessed as upregulation of Hadn-mRNA expression in C57BL/6Nifdc mouse liver at 10 mg/kg, po for 4 days; type: functional, organism-based; conditions: time 4.0 day
Mus musculus [14] = experiment: In vivo agonist activity against PPARalpha/delta assessed as upregulation of Pex11a mRNA expression in C57BL/6Nifdc mouse skeletal muscle at 10 mg/kg, po for 4 days; type: functional, organism-based; conditions: time 4.0 day
Mus musculus [15] = experiment: In vivo agonist activity against PPARalpha/delta assessed as upregulation of Nfkbia-mRNA expression in C57BL/6Nifdc mouse skeletal muscle at 10 mg/kg, po for 4 days; type: functional, organism-based; conditions: time 4.0 day
Mus musculus [16] = experiment: In vivo agonist activity against PPARalpha/delta assessed as upregulation of Cpt1b mRNA expression in C57BL/6Nifdc mouse skeletal muscle at 10 mg/kg, po for 4 days; type: functional, organism-based; conditions: time 4.0 day
Mus musculus [17] = experiment: In vivo agonist activity against PPARalpha/delta assessed as upregulation of -Mlycd mRNA expression in C57BL/6Nifdc mouse skeletal muscle at 10 mg/kg, po for 4 days; type: functional, organism-based; conditions: time 4.0 day
Mus musculus [18] = experiment: In vivo agonist activity against PPARalpha/delta assessed as upregulation of Pdk4 mRNA expression in C57BL/6Nifdc mouse skeletal muscle at 10 mg/kg, po for 4 days; type: functional, organism-based; conditions: time 4.0 day
Mus musculus [19] = experiment: In vivo agonist activity against PPARalpha/delta assessed as upregulation of […] mRNA expression in C57BL/6Nifdc mouse skeletal muscle at 10 mg/kg, po for 4 days; type: functional, organism-based; conditions: time 4.0 day
COS7 [20] = experiment: Agonist activity at human FXR (193 to 486 residues) in Cos7 cells transfected with LBD-Gal4 and pGL435 Gal4 UAS Luc reporter plasmid at 10 uM by reporter gene assay; type: cell-based
COS7 [21] = experiment: Agonist activity at human CAR (48 to 324 residues) in Cos7 cells transfected with LBD-Gal4 and pGL435 Gal4 UAS Luc reporter plasmid at 10 uM by reporter gene assay; type: cell-based
Mus musculus [22] = experiment: Anti-NASH activity in HF-CDAA-induced nonalcoholic steatohepatitis C57BL/6JNifdc mouse model assessed as reduction in steatosis by measuring hepatic total cholesterol level at 3 to 30 mg/kg, po; type: functional, organism-based; conditions: dose 3-30 mg/kg
Mus musculus [23] = experiment: Anti-NASH activity in HF-CDAA-induced nonalcoholic steatohepatitis C57BL/6JNifdc mouse model assessed as lipid drop size at 3 to 30 mg/kg, po by H and E staining method; type: functional, organism-based; conditions: dose 3-30 mg/kg
Mus musculus [24] = experiment: Anti-NASH activity in HF-CDAA-induced nonalcoholic steatohepatitis C57BL/6JNifdc mouse model assessed as decrease in level of serum ALT 10 mg/kg, po by automatic biochemical analysis; type: functional, organism-based
Mus musculus [25] = experiment: Anti-inflammatory activity in HF-CDAA-induced nonalcoholic steatohepatitis C57BL/6JNifdc mouse model assessed as decrease in Tnf mRNA expression at 10 mg/kg, po; type: functional, organism-based
Mus musculus [26] = experiment: Anti-inflammatory activity in HF-CDAA-induced nonalcoholic steatohepatitis C57BL/6JNifdc mouse model assessed as decrease in Il1b mRNA expression at 10 mg/kg, po; type: functional, organism-based
THP-1 = experiment: Anti-inflammatory activity in human THP1-derived macrophages assessed as decrease in secretion of LPS-induced TNF-alpha level at 8 to 200 nM for 12 hrs by ELISA kit method; type: functional, cell-based; conditions: dose 8-200 nM
AML12 = experiment: Agonist activity against PPARalpha/delta (unknown origin) assessed as upregulation of ACADVL mRNA expression in […] cells incubated for 12 hrs by RT-PCR analysis; type: cell-based; conditions: filed as agonist, dose 8-200 nM
C2C12 = experiment: Agonist activity against PPARalpha/delta (unknown origin) assessed as upregulation of Pdk4 mRNA expression in […] cells at 8 nM incubated for 12 hrs by RT-PCR analysis; type: cell-based; conditions: filed as agonist

Measured: Activity

Cc1cc(Cn2ncn(-c3ccc(OC(F)(F)F)cc3)c2=O)cc(C)c1OC(C)(C)C(=O)O
active: HepG2 [1] Dose-Dependent Effect | HepG2 [2] | HepG2 [3] | HepG2 [4] | Mus musculus [5] | Mus musculus [6] | Mus musculus [7] | Mus musculus [8] | Mus musculus [9] | Mus musculus [10] | Mus musculus [11] | Mus musculus [12] | Mus musculus [13] | Mus musculus [14] | Mus musculus [15] | Mus musculus [16] | Mus musculus [17] | Mus musculus [18] | Mus musculus [19] | Mus musculus [22] | Mus musculus [23] | Mus musculus [24] | Mus musculus [25] | Mus musculus [26] | THP-1 | AML12 Dose-Dependent Effect | C2C12
inactive: COS7 [20] | COS7 [21]
